From US11172681B2 (priority 2017, dated 2021)

Experiments:
[1] = Physicochemical stability test (thermal storage of technical material in ovens for 2 months); conditions: for Stability at different temperatures: 25-70° C.; for Purity after thermal storage: HPLC
Method: Thereafter, technical materials of the two crystalline forms were placed into ovens with temperatures of 25° C., 40° C., 55° C. and 70° C. respectively and left there for 2 months for thermal storage test.

[2] = Synergistic effect with other herbicides

Row | Structure (SMILES) | Stability at different temperatures [1] | Crystalline form after thermal storage ([1]; 25° C.) | Purity after thermal storage ([1]; 25° C.) [%] | Crystalline form after thermal storage ([1]; 40° C.) | Purity after thermal storage ([1]; 40° C.) [%] | Crystalline form after thermal storage ([1]; 55° C.) | Purity after thermal storage ([1]; 55° C.) [%] | Crystalline form after thermal storage ([1]; 70° C.) | Purity after thermal storage ([1]; 70° C.) [%] | Synergistic effect with one or more listed herbicides [2]
1 | Cc1nn(C)cc1C(=O)Oc1c(C(=O)c2ccc(C(F)(F)F)cc2S(C)(=O)=O)c(C)nn1C [Crystalline form C of shuangzuocaotong, 1,3-Dimethyl-1H-pyrazole-4-carboxylic acid 4-[2-methanesulfonyl-4-trifluoromethyl-benzoyl]-1,3-dimethyl-1H-pyrazol-5-yl ester] | good stability | Crystalline form C | 96.0 | Crystalline form C | 95.8 | Crystalline form C | 95.7 | Crystalline form C | 95.2 | obvious synergistic effect
2 | Cc1nn(C)cc1C(=O)Oc1c(C(=O)c2ccc(C(F)(F)F)cc2S(C)(=O)=O)c(C)nn1C [Crystalline form A of shuangzuocaotong, 1,3-Dimethyl-1H-pyrazole-4-carboxylic acid 4-[2-methanesulfonyl-4-trifluoromethyl-benzoyl]-1,3-dimethyl-1H-pyrazol-5-yl ester] | good stability | Crystalline form A | 96.0 | Crystalline form A | 95.5 | Crystalline form A | 95.1 | Crystalline form A | 94.2 | 
